Assay results reported in US12378248B2 (The United States of America, as represented by the …, priority 2018, dated 2025).
Numbering of substitutions follows the chain as printed.

Key:
serotonin receptor 5HT2B = serotonin receptor 5HT2B (Homo sapiens, UniProt P41595); assay: Off-target interaction determined by the PDSP; format: binding; settings: read-out: Off-target, receptor (h, unless noted) (Ki, μM): 5HT2B
mA1AR = target: T1, mA1AR (Mus musculus, UniProt Q60612); assay: Adenosine receptor binding, mA1AR; settings: for Ki: (m), read-out: A1AR % inhibition or Ki (converted)
T1 sequence (Q60612 1-326): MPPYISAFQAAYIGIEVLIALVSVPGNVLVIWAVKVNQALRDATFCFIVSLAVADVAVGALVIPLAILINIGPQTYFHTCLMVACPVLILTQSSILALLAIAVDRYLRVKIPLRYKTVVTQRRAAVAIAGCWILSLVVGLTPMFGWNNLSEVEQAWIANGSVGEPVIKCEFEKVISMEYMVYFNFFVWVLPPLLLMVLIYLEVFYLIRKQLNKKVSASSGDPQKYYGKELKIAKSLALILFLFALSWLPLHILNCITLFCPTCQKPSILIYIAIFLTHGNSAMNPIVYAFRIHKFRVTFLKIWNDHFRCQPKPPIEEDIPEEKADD

mA3AR [1] = target: T2, mA3AR (Mus musculus, UniProt Q61618); assay: Adenosine receptor binding, mA3AR; settings: for Ki: (m), read-out: A3AR % inhibition or Ki (converted)
T2 sequence (Q61618 1-319): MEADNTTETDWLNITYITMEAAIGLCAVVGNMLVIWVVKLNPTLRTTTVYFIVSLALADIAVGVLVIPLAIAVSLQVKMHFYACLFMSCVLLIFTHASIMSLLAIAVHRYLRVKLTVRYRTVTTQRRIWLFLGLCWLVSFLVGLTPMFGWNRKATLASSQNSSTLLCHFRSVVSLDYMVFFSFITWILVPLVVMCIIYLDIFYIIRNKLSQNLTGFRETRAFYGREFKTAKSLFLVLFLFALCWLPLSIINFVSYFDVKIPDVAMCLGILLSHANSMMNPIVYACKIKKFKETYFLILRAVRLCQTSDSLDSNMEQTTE

hA2AAR = target: T3, hA2AAR (Homo sapiens, UniProt P29274); assay: Radioligand binding in membranes of HEK293 cells expressing hA2AAR; settings: read-out: A2AAR % inhibition; for Ki: (h), values without % sign (Ki)
T3 construct: expressed in transfected cells; host or cells: HEK293
T3 sequence (P29274 whole entry): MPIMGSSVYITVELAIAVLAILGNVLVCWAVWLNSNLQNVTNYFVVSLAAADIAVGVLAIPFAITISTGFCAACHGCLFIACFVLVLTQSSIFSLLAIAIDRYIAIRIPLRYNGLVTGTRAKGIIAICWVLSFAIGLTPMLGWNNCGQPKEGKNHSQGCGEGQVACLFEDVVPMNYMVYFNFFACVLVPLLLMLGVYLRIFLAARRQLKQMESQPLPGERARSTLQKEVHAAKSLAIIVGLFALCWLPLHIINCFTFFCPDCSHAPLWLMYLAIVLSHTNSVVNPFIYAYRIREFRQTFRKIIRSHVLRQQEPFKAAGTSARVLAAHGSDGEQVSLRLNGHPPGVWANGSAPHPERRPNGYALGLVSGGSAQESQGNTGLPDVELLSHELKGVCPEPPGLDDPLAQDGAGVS

hA1AR = target: T4, hA1AR (Homo sapiens, UniProt P30542); assay: Radioligand binding in membranes of CHO cells expressing hA1AR, [3H]N6-R-phenylisopropyladenosine; settings: read-out: A1AR % inhibition or Ki; for Ki: (h)
T4 construct: expressed in transfected cells; host or cells: CHO
T4 sequence (P30542 1-326): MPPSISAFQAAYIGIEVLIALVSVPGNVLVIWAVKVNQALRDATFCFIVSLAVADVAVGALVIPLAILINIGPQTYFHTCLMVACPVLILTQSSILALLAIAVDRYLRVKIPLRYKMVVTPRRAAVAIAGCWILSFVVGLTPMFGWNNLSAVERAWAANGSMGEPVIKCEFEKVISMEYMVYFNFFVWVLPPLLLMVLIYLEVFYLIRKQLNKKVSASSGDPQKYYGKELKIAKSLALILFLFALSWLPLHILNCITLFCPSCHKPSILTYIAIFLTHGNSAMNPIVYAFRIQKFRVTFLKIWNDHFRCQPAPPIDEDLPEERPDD

sigma receptor σ2 = sigma receptor σ2 (UniProt Q5BJF2); assay: Off-target interaction determined by the PDSP; format: binding, human; settings: read-out: Off-target, receptor (h, unless noted) (Ki, μM): σ2
serotonin receptor 5HT2C = target: T5, serotonin receptor 5HT2C (Homo sapiens, UniProt P28335); assay: Off-target interaction determined by the PDSP; format: binding; settings: read-out: Off-target, receptor (h, unless noted) (Ki, μM): 5HT2C
T5 sequence (P28335 33-458): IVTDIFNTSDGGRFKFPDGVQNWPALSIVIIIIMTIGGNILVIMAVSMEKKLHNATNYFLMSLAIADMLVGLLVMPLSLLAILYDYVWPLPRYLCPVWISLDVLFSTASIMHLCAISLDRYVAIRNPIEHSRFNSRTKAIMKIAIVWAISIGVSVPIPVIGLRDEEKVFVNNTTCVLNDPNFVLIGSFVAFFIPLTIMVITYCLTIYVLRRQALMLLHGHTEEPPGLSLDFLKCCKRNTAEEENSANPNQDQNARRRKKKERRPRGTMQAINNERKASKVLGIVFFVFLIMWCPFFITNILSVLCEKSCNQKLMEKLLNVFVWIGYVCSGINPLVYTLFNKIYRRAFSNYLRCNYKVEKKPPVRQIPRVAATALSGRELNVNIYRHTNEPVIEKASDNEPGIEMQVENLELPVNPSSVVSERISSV

mA2AAR = mA2AAR (Mus musculus, UniProt Q60613); assay: Adenosine receptor binding, mA2AAR; settings: read-out: A2AAR % inhibition (converted)
Chain of mA2AAR (Q60613 whole entry): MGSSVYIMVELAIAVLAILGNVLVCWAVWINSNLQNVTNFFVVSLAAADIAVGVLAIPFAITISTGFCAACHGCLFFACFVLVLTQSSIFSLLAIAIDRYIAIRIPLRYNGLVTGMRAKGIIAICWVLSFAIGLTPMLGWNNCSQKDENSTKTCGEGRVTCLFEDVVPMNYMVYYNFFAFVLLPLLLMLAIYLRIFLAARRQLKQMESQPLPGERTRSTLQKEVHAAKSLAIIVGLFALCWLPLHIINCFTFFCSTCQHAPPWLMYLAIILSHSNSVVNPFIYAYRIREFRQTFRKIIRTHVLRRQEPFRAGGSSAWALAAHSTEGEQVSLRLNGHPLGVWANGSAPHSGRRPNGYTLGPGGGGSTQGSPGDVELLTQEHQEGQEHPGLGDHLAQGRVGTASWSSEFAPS

hA3AR = target: T6, hA3AR (Homo sapiens, UniProt P0DMS8); assay: Radioligand binding in membranes of CHO cells expressing hA3AR; settings: read-out: A3AR % inhibition or Ki; for Ki: (h)
T6 construct: expressed in transfected cells; host or cells: CHO
T6 sequence (P0DMS8 1-318): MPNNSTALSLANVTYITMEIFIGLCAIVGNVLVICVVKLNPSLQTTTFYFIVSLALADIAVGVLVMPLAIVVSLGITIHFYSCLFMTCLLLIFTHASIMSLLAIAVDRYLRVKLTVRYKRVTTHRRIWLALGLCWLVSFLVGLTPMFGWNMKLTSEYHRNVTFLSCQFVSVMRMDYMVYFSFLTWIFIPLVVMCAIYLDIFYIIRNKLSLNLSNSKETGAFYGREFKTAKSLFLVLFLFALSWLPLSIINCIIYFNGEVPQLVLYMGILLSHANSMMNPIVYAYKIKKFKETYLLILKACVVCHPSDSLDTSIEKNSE

[2] = tested on: off-target receptors (PDSP); assay: Off-target interactions determined by the PDSP, whole screen; format: binding, human; settings: no off-target interaction listed
[3] = Plasma protein binding at 10 μM; format: in vitro ADME, mouse; settings: unbound percent ± standard deviation
Protocol: (§1) Plasma protein binding in human plasma, mouse plasma, and rat plasma was determined. Verapamil and warfarin served as positive controls. The results are expressed as unbound percent±standard deviation.

wild-type C57BL/6J mice [4] = assay: Hypothermia (Tb by telemetry) after ip dosing; format: in vivo, mouse; settings: for Tb (° C.): average from dosing to 60 min, mean±SD
Protocol: (§2) Compounds were dosed ip. Tb and activity were measured by telemetry and the averages from dosing to 60 min were calculated. […] Data are for the highest dose used and are mean±SD from 3 to 22 mice/group (usually 5-7). P values are unpaired t-Test vs vehicle-treated controls assayed simultaneously. Vehicle data are mean±SD from all (n=83) vehicle treated mice.

wild-type C57BL/6J mice [5] = assay: Locomotor activity by telemetry after ip dosing; format: in vivo, mouse; settings: average from dosing to 60 min, mean±SD
Protocol: as §2

[6] = Plasma protein binding at 10 μM; format: in vitro ADME, human; settings: unbound percent ± standard deviation
Protocol: as §1

[7] = Plasma protein binding at 10 μM; format: in vitro ADME, rat; settings: unbound percent ± standard deviation
Protocol: as §1

mA3AR [8] = target: T2, mA3AR; assay: Guanine nucleotide ([35S]GTPγS) binding assay; format: biochemical; settings: effect of 10 μM test compound as % of 10 μM 16
Protocol: cLogP was calculated using ChemDraw Professional, v. 16.0. Binding selectivity for mA1Ar is expressed in terms of fold, compared to mA3AR (Data from Table 1).

rA1AR = target: T7, rA1AR (Rattus norvegicus, UniProt P25099); assay: Adenosine receptor binding, rA1AR; settings: (r), read-out: A1AR % inhibition or Ki (converted)
T7 sequence (P25099 1-326): T1 sequence (Q60612 1-326) with E151V, A155D, I157R, E316D, I319L, D325E

[9] = target: dopamine transporter (DAT) (Homo sapiens, UniProt Q01959); assay: Off-target interaction determined by the PDSP; format: binding; settings: read-out: Off-target, receptor (h, unless noted) (Ki, μM): DAT
Chain of dopamine transporter (DAT) (Q01959 whole entry): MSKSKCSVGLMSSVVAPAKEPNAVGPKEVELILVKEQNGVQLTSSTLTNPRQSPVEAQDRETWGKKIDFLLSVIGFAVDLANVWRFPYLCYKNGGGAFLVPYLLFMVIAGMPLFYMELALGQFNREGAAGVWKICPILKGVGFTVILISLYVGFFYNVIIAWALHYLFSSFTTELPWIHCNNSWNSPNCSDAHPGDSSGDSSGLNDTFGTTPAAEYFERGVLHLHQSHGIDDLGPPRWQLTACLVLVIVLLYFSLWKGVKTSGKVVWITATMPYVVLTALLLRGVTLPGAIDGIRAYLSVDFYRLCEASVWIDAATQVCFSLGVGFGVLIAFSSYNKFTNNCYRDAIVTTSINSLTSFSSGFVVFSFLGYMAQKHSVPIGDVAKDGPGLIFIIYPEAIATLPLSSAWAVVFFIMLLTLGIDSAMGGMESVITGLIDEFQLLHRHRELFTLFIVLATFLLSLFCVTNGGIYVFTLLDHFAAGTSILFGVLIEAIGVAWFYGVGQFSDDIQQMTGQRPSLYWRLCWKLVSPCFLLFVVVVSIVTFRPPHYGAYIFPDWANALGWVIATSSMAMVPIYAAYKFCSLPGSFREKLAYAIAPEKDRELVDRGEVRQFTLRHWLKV

Chain of serotonin receptor 5HT2B (P41595 whole entry): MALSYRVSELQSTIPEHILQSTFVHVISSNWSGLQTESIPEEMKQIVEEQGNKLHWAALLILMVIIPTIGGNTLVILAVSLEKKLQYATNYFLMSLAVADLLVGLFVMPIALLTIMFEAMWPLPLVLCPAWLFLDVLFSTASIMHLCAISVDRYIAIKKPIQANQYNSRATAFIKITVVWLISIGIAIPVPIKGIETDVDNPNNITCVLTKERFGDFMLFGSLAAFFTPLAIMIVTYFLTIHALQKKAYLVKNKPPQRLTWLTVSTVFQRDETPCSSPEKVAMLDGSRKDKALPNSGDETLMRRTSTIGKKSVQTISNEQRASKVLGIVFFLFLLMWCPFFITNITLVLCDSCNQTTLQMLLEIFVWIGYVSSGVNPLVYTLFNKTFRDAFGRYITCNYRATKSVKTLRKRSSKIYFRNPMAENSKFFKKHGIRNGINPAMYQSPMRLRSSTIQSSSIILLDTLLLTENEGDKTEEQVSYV

O[C@H]1[C@H](n2cnc3c(NC(C4CCC4)C4CCC4)nc(Cl)nc32)[C@H]2C[C@@]2(CSc2ccccc2F)[C@H]1O [Compound 28, (1S,2R,3S,4R,5S)-4-(2-Chloro-6-((dicyclobutylmethyl)amino)-9H-purin-9-yl)-1-(((2-fluorophenyl)thio)methyl)bicyclo[3.1.0]hexane-2,3-diol]
Ki (serotonin receptor 5HT2B): 0.334 µM | Ki (mA1AR): 2490 nM | Ki (mA3AR [1]): 7440 nM | inhibition at 10 µM (hA2AAR): 22 ± 5% | inhibition at 10 µM (hA1AR): 45 ± 4% | Ki (sigma receptor σ2): 0.583 µM | Ki (serotonin receptor 5HT2C): 1.46 µM | inhibition at 10 µM (mA2AAR): 20% | Ki (hA3AR): 9750 ± 4030 nM

OC[C@@]12C[C@@H]1[C@@H](n1cnc3c(N[C@H]4C[C@H]5CC[C@@H]4C5)nc(Cl)cc31)[C@H](O)[C@@H]2O [Compound 30, (1R,2R,3S,4R,5S)-4-(4-(((1R,2S,4S)-Bicyclo[2.2.1]heptan-2-yl)amino)-6-chloro-1H-imidazo[4,5-c]pyridin-1-yl)-1-(hydroxymethyl)bicyclo[3.1.0]hexane-2,3-diol]
Off-target, receptor (h, unless noted) [2]: none | inhibition at 10 µM (hA2AAR): 29 ± 13% | Ki (hA1AR): 240 ± 19 nM | Ki (hA3AR): 145 ± 74 nM

OC[C@H]1O[C@@H](n2cnc3c(NC(C4CCC4)C4CCC4)ncnc32)[C@H](O)C1O (stereo in doubt) [Compound 9, (2R,3R,4R,5R)-2-(6-((Dicyclobutylmethyl)amino)-9H-purin-9-yl)-5-(hydroxymethyl)tetrahydrofuran-3,4-diol]
mouse, % free [3]: 20.6 ± 1.2% | ARs causing hypothermia (wild-type C57BL/6J mice [4]; 3 mg/kg ip, WT and AR-KO mice (FIG. 2)): A1AR selective | Tb (° C.) (wild-type C57BL/6J mice [4]; 3 mg/kg ip): 33.0 ± 0.7 °C | Activity (counts) (wild-type C57BL/6J mice [5]; 3 mg/kg ip): 6.6 ± 2.3 counts | human, % free [6]: 6.05 ± 1.60% | rat, % free [7]: 14.6 ± 0.01% | Emax at 10 µM (mA3AR [8]): 70 ± 9% | Ki (hA3AR): 10600 nM

Nc1nc(Cl)nc2c1ncn2[C@H]1[C@H](O)[C@H](O)[C@]2(CO)C[C@H]12 [Compound 21]
Off-target, receptor (h, unless noted) [2]: none | Ki (rA1AR): 273 nM

NC(=O)c1ncn([C@H]2[C@H](O)[C@H](O)[C@]3(CO)C[C@H]23)n1 [Compound 40, 1-((1S,2R,3S,4R,5R)-3,4-Dihydroxy-5-(hydroxymethyl)bicyclo[3.1.0]hexan-2-yl)-1H-1,2,4-triazole-3-carboxamide]
Ki (serotonin receptor 5HT2B): 1.91 µM | mouse, % free [3]: > 80% | Tb (° C.) (wild-type C57BL/6J mice [4]; 10 mg/kg ip): 35.7 ± 0.7 °C | selectivity ratio (mA1AR): 400 | Ki (mA1AR): 25.2 ± 2.8 nM | Activity (counts) (wild-type C57BL/6J mice [5]; 10 mg/kg ip): 19.1 ± 5.3 counts | inhibition at 10 µM (mA3AR [1]; read-out: A3AR % inhibition or Ki): 47 ± 2% | inhibition at 10 µM (hA2AAR): 11 ± 3% | Ki (hA1AR): 495 ± 35 nM | Ki (sigma receptor σ2): 2.09 µM | human, % free [6]: > 80% | Ki (serotonin receptor 5HT2C): 2.35 µM | rat, % free [7]: > 80% | Emax at 10 µM (mA3AR [8]): 31 ± 3% | Ki [9]: 6.61 µM | inhibition at 10 µM (hA3AR): 41 ± 6%

CNC(=O)[C@H]1O[C@@H](n2cnc3c(N)ncnc32)[C@H](O)[C@@H]1O [Compound 15, reference compound]
Off-target, receptor (h, unless noted) [2]: none | Ki (rA1AR): 84 nM | Ki (hA2AAR): 466 ± 95 nM | Ki (hA1AR): 36.7 nM | Ki (hA3AR): 24.4 nM

CCNC(=O)[C@H]1O[C@@H](n2cnc3c(N)ncnc32)[C@H](O)[C@@H]1O [Compound 16, reference compound]
Off-target, receptor (h, unless noted) [2]: none

O=C(NC1CC1)[C@@]12C[C@@H]1[C@@H](n1cnc3c(N[C@H]4C[C@H]5CC[C@@H]4C5)nc(Cl)nc31)[C@H](O)[C@@H]2O [Compound 36, (1S,2R,3S,4R,5S)-4-(6-(((1R,2S,4S)-bicyclo[2.2.1]heptan-2-yl)amino)-2-chloro-9H-purin-9-yl)-N-cyclopropyl-2,3-dihydroxybicyclo[3.1.0]hexane-1-carboxamide]
Ki (serotonin receptor 5HT2B): 1.57 µM | Ki (mA1AR): 0.45 nM | Ki (mA3AR [1]): 29.5 nM | Ki (hA2AAR): 520 ± 119 nM | Ki (hA1AR): 1.22 ± 0.05 nM | Ki (mA2AAR; (m), values without % sign (Ki)): 2650 nM | Ki (hA3AR): 59 ± 17.8 nM
